Results from patent US4091006A, “Esters of 3-hydroxyindone compounds” (priority 1975, dated 1978).

Columns and labels:
Bean = assay: Phytotoxicity, bean; conditions: 2500 ppm, 10 days
Method: (§4) Experiments were also conducted to determine the phytotoxicity of representative enol ester compositions with respect to healthy fresh plants. […] The test plants were sprayed in accordance with the procedure described above for the Mite Foliage Spray Test so as to deliver approximately 100 milliliters of test solution to the leaves of each plant tested. The sprayed plants and controls were set aside for approximately 1 hour to allow the solutions to dry and were then placed in the greenhouse. After 10 days the plants were visually inspected to determine the extent of foliage injury. A rating of 1 indicates no perceptible injury; 5 indicates the plant was dead and ratings of 2, 3 and 4 indicate intermediate degrees of injury based upon the number and extent to which leaves were injured.

Tomato = assay: Phytotoxicity, tomato; conditions: 2500 ppm, 10 days
Method: as §4

Corn = assay: Phytotoxicity, corn; conditions: 2500 ppm, 10 days
Method: as §4

[1] = system: eggs of the two-spotted mite; assay: Fumigant toxicity, Method 1 (deposit in pie plate); format: in vivo; conditions: deposit approx. 160 μg per square cm, 4 days
Method: (§1) Two methods were used to evaluate fumigant properties:
Method 1: Fifty mg. of each compound were dissolved in 5 ml. of acetone and poured into a 20 cm. (bottom diameter) Pyrex No. 210 pie plate. The acetone was allowed to evaporate leaving a deposit of approximately 160 μg. per square cm. The plate was then placed in the bottom of a 50 pound metal lard container (about 30 cm. in diameter and 34 cm. high). Two excised bean plants, held in a 250 ml. Erlenmeyer flask containing 100 ml. of tap water and infested with eggs of the two-spotted mite, were placed in the center of the pie plate. The container was held in the insectary (temperature 80±5° F., 50±5% R. H.) for four days before mortality determinations were made.

[2] = system: adults and nymphal stages of the two-spotted mite; assay: Mite Foliage Spray Test; format: in vivo, Tetranychus urticae (Koch); set-up: key: 1: no mortality; 3: an approximately 50% mortality; 5: 100% mortality; conditions: 4 days
Excerpt: (§2) The test procedures were as follows:
(§3) Compositions were rated on the basis of percent kill with a rating of 1 indicating no mortality; 3 signifying an approximately 50% mortality and 5 indicating 100% mortality at the indicated dosage.

[3] = system: egg forms of the two-spotted mite; assay: Fumigant toxicity, Method 2 (treated plants near untreated infested plants); format: in vivo; conditions: 500 ppm dip, 4 days
Method: as §1
Method 2: Excised bean plants infested with egg forms of the two-spotted mite were dipped in an aqueous preparation (500 ppm) of the test compound. The treated plants were transferred to 250 ml. Erlenmeyer flasks containing 100 ml. of tap water. Four flasks holding treated plants were evenly spaced around a similar flask in which were placed untreated mite-infested plants so that the leaves of the treated foliage were in close proximity (1-3 inches) to the untreated plants. Four days later mortality determinations were made.

Cotton = assay: Phytotoxicity, cotton; conditions: 2500 ppm, 10 days
Method: as §4

[4] = system: egg of the two-spotted mite; assay: Mite Ovicide Test; format: in vivo, Tetranychus urticae (Koch); set-up: key to Mite Ova rating: 1: no mortality; 3: an approximately 50% mortality; 5: 100% mortality; conditions: spray on eggs, 4 days
Excerpt: as §2
The plants were allowed to dry thoroughly.
as §3

[5] = system: Perennial rye grass, crabgrass, red root pigweed, mustard; assay: Preliminary Herbicide Seed Germination Test; conditions: each rated 1 (no injury) to 5 (no seedlings emerged)
two-spotted mite = assay: Small scale field tests, mite control on Tendergreen bean plants; format: in vivo, Tetranychus urticae (Koch)
Method: Selected enol ester compositions were evaluated in small scale field tests to determine whether the excellent miticidal properties observed in greenhouse testing would be obtained under actual conditions of field use.
In Test I 500 ppm aqueous dispersions were prepared as described above. In tests II and III various dilutions of the test compounds ranging from 125 ppm to 1000 ppm were prepared and used. In each case the test dispersions were applied to a minimum of two replicate test plots measuring five feet in length and containing healthy young Tendergreen bean plants which had previously been infested with two-spotted mite (Tetranychus urticae (Koch)). Dispersions of the test compounds at each concentration level were applied to individual replicate plots using 1/2 gallon garden sprayers equipped with spray nozzles to apply approximately 250 ml. of test solution to each replicate. The effectiveness of the treatment was determined at intervals following application, by microscopic examination of five leaves selected at random from each replicate plot. The degree of effectiveness for each leaf was rated on a scale of from 1 to 5 with 1 indicating no control in reference to a standard sprayed with a mixture of solution less test compound and 5 indicating complete control. The results obtained from inspection of sample leaves were then averaged to give a numerical indication of the degree of control for each compound tested at the concentration applied.

[6] = rating/maximum 20: 100 ppm only, four species
[7] = rating/maximum 40: 100 and 1000 ppm, four species, 10-12 days
[8] = Test I, 500 ppm, 4 days, scale 1 (no control) to 5 (complete control)
[9] = Test I, 500 ppm, 8 days, scale 1 to 5
[10] = Test II, 250 ppm, 3 days, scale 1 to 5
[11] = Test II, 250 ppm, 7 days, scale 1 to 5
[12] = Test II, 500 ppm, 3 days, scale 1 to 5
[13] = Test II, 500 ppm, 7 days, scale 1 to 5
[14] = Test II, 1000 ppm, 3 days, scale 1 to 5
[15] = Test II, 1000 ppm, 7 days, scale 1 to 5

| Molecule | Phytotoxicity Rating, Bean (Bean) | Phytotoxicity Rating, Tomato (Tomato) | Phytotoxicity Rating, Corn (Corn) | Fumigant Toxicity Method 1 [1] | Mite Adult rating [2] | Fumigant Toxicity Method 2 [3] | Phytotoxicity Rating, Cotton (Cotton) | Mite Ova rating [4] | Herbicide (total preemergence rating) [5, 6] | Herbicide (total preemergence rating) [5, 7] | Average mite control rating, 1st Reading (two-spotted mite; [8]) | Average mite control rating, 2nd Reading (two-spotted mite; [9]) | other results |
| --- | --- | --- | --- | --- | --- | --- | --- | --- | --- | --- | --- | --- | --- |
| 2-(2',4',6'-Trimethylphenyl)-3-(neodecanoyloxy)indone | 2 | 1 | 2 | 1 | 5 (100% mortality) | 1 | 1 | 5 (100% mortality) | 10/20 | – | – | – | – |
| 2-(2',5'-Dimethylphenyl)-3-(neodecanoyloxy)indone | 1 | 1 | 1 | – | 1 | – | 1 | 3 (an approximately 50% mortality) | 4/20 | – | – | – | – |
| 2-(2'-Methylphenyl)-3-(neodecanoyloxy)indone | 1 | 1 | 1 | – | 1 | – | 1 | 1 | 4/20 | – | – | – | – |
| CCCCC(CC)COC(=O)OC1=C(c2c(C)cc(C)cc2C)C(=O)c2ccccc21 (stereo not shown) [2-(2',4',6'-Trimethylphenyl)-3-(2-ethylhexyloxycarbonyloxy)indone] | 1 | 1 | 2 | 1 | 5 (100% mortality) | 1 | 1 | 5 (100% mortality) | 15/20 | – | – | – | – |
| COC(=O)CCC(=O)OC1=C(c2c(C)cc(C)cc2C)C(=O)c2ccccc21 [2-(2',4',6'-Trimethylphenyl)-3-(3-methoxycarbonylpropionyloxy)indone] | 1 | 1 | 1 | 1 | 5 (100% mortality) | 1 | 1 | 5 (100% mortality) | – | – | – | – | Herbicide (total preemergence rating) ([5]; rating/maximum 15: 100 ppm only, crabgrass omitted): 15/15 |
| Cc1cc(C)c(C2=C(OC(=O)OC(C)C)c3ccccc3C2=O)c(C)c1 [2-(2',4',6'-Trimethylphenyl)-3-(Isopropoxycarbonyloxy)indone] | – | – | – | 5 (80-100% control) | 5 (100% mortality) | 3 | – | 5 (100% mortality) | 18/20 | – | – | – | – |
| CC(=O)OC1=C(c2c(C)cc(C)cc2C)C(=O)c2ccccc21 [2-(2',4',6'-Trimethylphenyl)-3-(acetoxy)indone] | – | – | – | 5 (80-100% control) | 5 (100% mortality) | 5 (80-100% control) | – | 5 (100% mortality) | – | 39/40 | – | – | – |
| CC(C)(C)C(=O)OC1=C(c2c(Cl)cccc2Cl)C(=O)c2ccccc21 [2-(2',6'-Dichlorophenyl)-3-(pivaloyloxy)indone] | – | – | – | – | 5 (100% mortality) | 3 | – | 5 (100% mortality) | – | 30/40 | 3.5 | 4.0 | Average mite control rating, 1st Reading (two-spotted mite; [10]): 2.3; Average mite control rating, 2nd Reading (two-spotted mite; [11]): 3.7; Average mite control rating, 1st Reading (two-spotted mite; [12]): 3.0; Average mite control rating, 2nd Reading (two-spotted mite; [13]): 3.3; Average mite control rating, 1st Reading (two-spotted mite; [14]): 3.3; Average mite control rating, 2nd Reading (two-spotted mite; [15]): 4.7 |
| Cc1cc(C)c(C2=C(OC(=O)c3ccccc3Cl)c3ccccc3C2=O)c(C)c1 [3-(2-Chlorobenzoyloxy)-2-(2',4',6'-trimethylphenyl)indone] | – | – | – | – | 5 (100% mortality) | – | – | 5 (100% mortality) | – | 32/40 | 2.5 | – | – |
| O=C(OC1=C(c2c(Cl)cccc2Cl)C(=O)c2ccccc21)c1ccccc1Cl [3-(2-chlorobenzoyloxy)-2-(2',6'-dichlorophenyl)indone] | – | – | – | – | 5 (100% mortality) | – | – | 5 (100% mortality) | – | 30/40 | 3.0 | 2.5 | – |
| Cc1cc(C)c(C2=C(OC(=O)c3cccc(Cl)c3)c3ccccc3C2=O)c(C)c1 [3-(3-Chlorobenzoyloxy)-2-(2',4',6'-trimethylphenyl)indone] | – | – | – | – | 5 (100% mortality) | – | – | 5 (100% mortality) | – | 29/40 | 1.5 | 2.0 | – |
| O=C(OC1=C(c2c(Cl)cccc2Cl)C(=O)c2ccccc21)c1cccc(Cl)c1 [3-(3-Chlorobenzoyloxy)-2-(2',6'-dichlorophenyl)indone] | – | – | – | – | 5 (100% mortality) | – | – | 5 (100% mortality) | – | 32/40 | 3.0 | 3.0 | – |
| Cc1cc(C)c(C2=C(OC(=O)OC3=C(c4c(C)cc(C)cc4C)C(=O)c4ccccc43)c3ccccc3C2=O)c(C)c1 [Bis[2-(2',4',6'-Trimethylphenyl)Indon-3-yl]Carbonate] | – | – | – | – | 5 (100% mortality) | – | – | 5 (100% mortality) | 15/20 | – | – | – | – |
| Cc1cc(C)c(C2C(=O)c3ccccc3C2=O)c(C)c1 [Compound A, 2-(2',4',6'-trimethylphenyl)-1,3-indandione, reference compound] | – | – | – | – | – | – | – | – | – | – | 1.0 | 1.0 | Average mite control rating, 1st Reading (two-spotted mite; [10]): 1.0; Average mite control rating, 2nd Reading (two-spotted mite; [11]): 1.3; Average mite control rating, 1st Reading (two-spotted mite; [12]): 2.7; Average mite control rating, 2nd Reading (two-spotted mite; [13]): 1.7; Average mite control rating, 1st Reading (two-spotted mite; Test III, 250 ppm, 3 days, scale 1 to 5): 1.0; Average mite control rating, 2nd Reading (two-spotted mite; Test III, 250 ppm, 7 days, scale 1 to 5): 2.0; Average mite control rating, 1st Reading (two-spotted mite; Test III, 500 ppm, 3 days, scale 1 to 5): 1.3; Average mite control rating, 2nd Reading (two-spotted mite; Test III, 500 ppm, 7 days, scale 1 to 5): 1.7; Average mite control rating, 1st Reading (two-spotted mite; Test III, 1000 ppm, 3 days, scale 1 to 5): 3.3; Average mite control rating, 2nd Reading (two-spotted mite; Test III, 1000 ppm, 7 days, scale 1 to 5): 3.3; Average mite control rating, 3rd Reading (two-spotted mite; Test III, 1000 ppm, 21 days, scale 1 to 5): 2.3 |
| O=C1c2ccccc2C(=O)C1c1c(Cl)cccc1Cl [Compound B, 2-(2',6'-dichlorophenyl)-1,3-indandione, reference compound] | – | – | – | – | – | – | – | – | – | – | 1.5 | 2.0 | Average mite control rating, 1st Reading (two-spotted mite; [10]): 3.7; Average mite control rating, 2nd Reading (two-spotted mite; [11]): 2.3; Average mite control rating, 1st Reading (two-spotted mite; [12]): 3.0; Average mite control rating, 2nd Reading (two-spotted mite; [13]): 3.3; Average mite control rating, 1st Reading (two-spotted mite; [14]): 2.0; Average mite control rating, 2nd Reading (two-spotted mite; [15]): 3.3 |
